Measured values reported in PMC2943923, “Human Integrin α3β1 Regulates TLR2 Recognition of Lipopeptides from Endosomal Compartments” (PLoS ONE, 2010).

Legend:
[1] = system: U937 macrophages; experiment: IL-6 secretion (ELISA) of U937 macrophages stimulated with Pam3CSK4; format: cell-based, human; conditions: 100 ng/ml Pam3CSK4, 6 hours; for decrease in Pam3CSK4-induced IL-6 secretion relative to control cells: 100 ng/ml concanamycin A, p = 0.037; for decrease in Pam3CSK4-induced IL-6 secretion relative to control cells / mean secretion of IL-6 by inhibitor-treated cells: 500 µM bafilomycin A1, 1 µM monensin, 5 µM CPZ; for mean secretion of IL-6 by inhibitor-treated cells: inhibitor added 30 minutes before: 100 ng/ml concanamycin A
Description: (§1) The human monocyte cell line U937 (American Type Culture Collection) was maintained in RPMI (Mediatech) with 10% FBS and 1% penicillin-streptomycin. For all experiments, U937 monocytes were differentiated at a concentration of 5×10^5 cells per well in 24-well plates with 100 nM phorbol 12-myristate 13-acetate (Sigma) for 48 hours. All experiments were performed under serum-free conditions, unless otherwise noted.
The TLR2/1 triacylated lipid ligand, Pam3CSK4 (Invivogen), biotinylated Pam3CSK4 (Axxora) or Pam3CSK4-rhodamine (Invivogen) were resuspended in endotoxin-free water. Pam3CSK4 was used at a concentration of 100 ng/ml to stimulate macrophages, and Pam3CSK4-biotin and Pam3CSK4-rhodamine were used at indicated concentrations.
Inhibition of endosomal acidification was achieved using inhibitors of V-ATPase, concanamycin A (100 ng/ml) and bafilomycin A1 (500 µM) (Sigma) or the ionophore monensin (1 µM) (Sigma). Clathrin-mediated endocytosis was inhibited with chlorpromazine (CPZ) (5 µM) (Sigma). Concentrations were chosen based on prior studies, [61]. All inhibitors were added 30 minutes prior to stimulation. For CPZ experiments, the media was replaced at the time of stimulation to remove CPZ. […]
Supernatants were collected 6 hours post stimulation. IL-6 and TNF-α were measured using the DuoSet enzyme linked immunoabsorbent assay (ELISA) kit (R&D systems) following the manufacturer's instructions.

[2] = system: U937 macrophages; experiment: IL-6 secretion of U937 macrophages stimulated with TNF-α (inhibitor control); format: cell-based, human; conditions: pre-treatment with inhibitor, stimulation with TNF-α; data not shown
Description: (§2) Inhibition of endosomal acidification was achieved using inhibitors of V-ATPase, concanamycin A (100 ng/ml) and bafilomycin A1 (500 µM) (Sigma) or the ionophore monensin (1 µM) (Sigma). Clathrin-mediated endocytosis was inhibited with chlorpromazine (CPZ) (5 µM) (Sigma). Concentrations were chosen based on prior studies, [61]. All inhibitors were added 30 minutes prior to stimulation. For CPZ experiments, the media was replaced at the time of stimulation to remove CPZ.
(§3) Supernatants were collected 6 hours post stimulation.

[3] = system: U937 macrophages; experiment: IL-6 secretion (ELISA) of U937 macrophages stimulated with B. burgdorferi; format: cell-based, human; conditions: for mean secretion of IL-6 by inhibitor-treated cells: B. burgdorferi MOI 10, 6 hours, serum-free, three experiments
Description: as §1
Clonal isolates of infectious, low passage B. burgdorferi sensu stricto (strain N40, clone D10E9) were cultured in Barbour-Stoenner-Kelley (BSK II) medium at 37°C as described, and used at multiplicity of infection (MOI) 10∶1.
as §2
For blocking antibody experiments, U937 macrophages were incubated for 2 hours prior to stimulation with 50 µg/ml of control mouse ascites fluid (NS-1 murine myeloma, Sigma-Aldrich) or anti-integrin α3β1 monoclonal antibody (P1B5, Millipore).
as §3

[4] = system: U937 macrophages; experiment: IFN-α1 transcript (qRT-PCR) in Pam3CSK4-stimulated U937 macrophages; format: cell-based, human; conditions: 100 ng/ml Pam3CSK4, serum-free; for reduction of IFN-α1 transcript levels: 100 ng/ml concanamycin A or 1 µM monensin, 6 and 16 hours, p = 0.037
Description: as §2
Cells were collected at 6 hours post infection unless otherwise indicated. RNA was extracted using TRIzol (Invitrogen) following the manufacturer's instructions. RNA was resuspended in water containing RNaseOut (Invitrogen) and treated with DNaseI using the Turbo DNA-free kit (Ambion). cDNA was synthesized using the ImPromII kit (Promega) following the manufacturer's instructions. Quantification of cDNA was performed by quantitative RT-PCR (iCycler, BioRad) using the iQ SYBR Green Supermix (BioRad). Cycling parameters were 95°C for 15 minutes followed by 40 cycles of 95°C for 30 seconds, 60°C for 30 seconds, and 72°C for 30 seconds. Primers used to measure IL-6, TNF-α, and β-actin were published previously, [62]. Human integrin α3 primers, forward: 5′-[…]-3′, reverse 5′-[…]-3′ were generated by Primer Bank, ID# 6006011a1. Human integrin αv primers, forward: 5′-[…]-3′, reverse 5′-[…]-3′ were generated by Primer Bank, ID# 4504763a2. Human integrin α5 primers, forward: 5′-[…]-3′, reverse 5′-[…]-3′ were generated by Primer Bank, ID# 4504751a3. Human integrin α6 primers, forward: 5′-TCGGCACAGCAACCTTGAA-3′, reverse 5′-[…]-3′ were generated by Primer Bank, ID# 30046796a2. Human TLR2 primers, forward: 5′-[…]-3′, reverse 5′- […]-3′. Human TLR4 primers, forward: 5′-[…]-3′, reverse 5′-[…]-3′ were generated by Primer Bank, ID# 19924149a1. Human TLR7 primers, forward: 5′-[…]-3′, reverse 5′-[…]-3′. Human TLR9 primers, forward: 5′-GCGACCAGGCTCCCGAAGG-3′, reverse 5′-[…]-3′. Human IFN-α1 primers, forward: 5′-[…]-3′, reverse: 5′-[…]-3′ were generated by Primer Bank, ID# 13128950a1 [63], [64]. […]

[5] = system: U937 macrophages; experiment: TNF-α secretion (ELISA) of U937 macrophages stimulated with Pam3CSK4; format: cell-based, human; conditions: Fig S5A; 100 ng/ml concanamycin A or 1 µM monensin; 100 ng/ml Pam3CSK4, 6 hours, serum-free
Description: as §2, §3

[6] = system: U937 macrophages; experiment: IL-6 transcript (qRT-PCR) in B. burgdorferi-stimulated U937 macrophages; format: cell-based, human; conditions: 1 µM monensin; B. burgdorferi MOI 10, 6 hours, serum-free (Fig. S4)
Description: as §2
(§4) Cells were collected at 6 hours post infection unless otherwise indicated. RNA was extracted using TRIzol (Invitrogen) following the manufacturer's instructions. RNA was resuspended in water containing RNaseOut (Invitrogen) and treated with DNaseI using the Turbo DNA-free kit (Ambion). cDNA was synthesized using the ImPromII kit (Promega) following the manufacturer's instructions. Quantification of cDNA was performed by quantitative RT-PCR (iCycler, BioRad) using the iQ SYBR Green Supermix (BioRad). Cycling parameters were 95°C for 15 minutes followed by 40 cycles of 95°C for 30 seconds, 60°C for 30 seconds, and 72°C for 30 seconds. Primers used to measure IL-6, TNF-α, and β-actin were published previously, [62]. Human integrin α3 primers, forward: 5′-[…]-3′, reverse 5′-[…]-3′ were generated by Primer Bank, ID# 6006011a1. […]

[7] = system: U937 macrophages; experiment: IL-6 transcript (qRT-PCR) in Pam3CSK4-stimulated U937 macrophages; format: cell-based, human; conditions: 1 µM monensin; 100 ng/ml Pam3CSK4, 6 hours, serum-free; normalized to β-actin (Fig. S2)
Description: as §2, §4

[8] = system: U937 macrophages; experiment: IFN-β transcript (qRT-PCR) in Pam3CSK4-stimulated U937 macrophages; format: cell-based, human; conditions: 100 ng/ml Pam3CSK4, serum-free, 6 hrs or 16 hrs post stimulation
Description: Cells were collected at 6 hours post infection unless otherwise indicated. RNA was extracted using TRIzol (Invitrogen) following the manufacturer's instructions. RNA was resuspended in water containing RNaseOut (Invitrogen) and treated with DNaseI using the Turbo DNA-free kit (Ambion). cDNA was synthesized using the ImPromII kit (Promega) following the manufacturer's instructions. Quantification of cDNA was performed by quantitative RT-PCR (iCycler, BioRad) using the iQ SYBR Green Supermix (BioRad). Cycling parameters were 95°C for 15 minutes followed by 40 cycles of 95°C for 30 seconds, 60°C for 30 seconds, and 72°C for 30 seconds. Primers used to measure IL-6, TNF-α, and β-actin were published previously, [62]. Human integrin α3 primers, forward: 5′-[…]-3′, reverse 5′-[…]-3′ were generated by Primer Bank, ID# 6006011a1. Human integrin αv primers, forward: 5′-[…]-3′, reverse 5′-[…]-3′ were generated by Primer Bank, ID# 4504763a2. Human integrin α5 primers, forward: 5′-[…]-3′, reverse 5′-[…]-3′ were generated by Primer Bank, ID# 4504751a3. Human integrin α6 primers, forward: 5′-TCGGCACAGCAACCTTGAA-3′, reverse 5′-[…]-3′ were generated by Primer Bank, ID# 30046796a2. Human TLR2 primers, forward: 5′-[…]-3′, reverse 5′- […]-3′. Human TLR4 primers, forward: 5′-[…]-3′, reverse 5′-[…]-3′ were generated by Primer Bank, ID# 19924149a1. Human TLR7 primers, forward: 5′-[…]-3′, reverse 5′-[…]-3′. […]

[9] = system: murine bone marrow derived macrophages; experiment: IFN-β induction in murine bone marrow derived macrophages; format: cell-based; conditions: data not shown
[10] = Fig 5, serum-free, three experiments
[11] = 100 ng/ml concanamycin A, 500 µM bafilomycin A1, 1 µM monensin
[12] = Homo sapiens, U-937, 6 h, read-out: inhibition of B. burgdorferi induction of IL-6

| Compound | decrease in Pam3CSK4-induced IL-6 secretion relative to control cells ([1]; serum-free) | mean secretion of IL-6 by inhibitor-treated cells [1, 10] | change in secretion of IL-6 in response to TNF-α [2] | mean secretion of IL-6 by inhibitor-treated cells [3, 11] | reduction of IFN-α1 transcript levels [4] | mean secretion of TNF-α by inhibitor-treated cells [5] | further results |
| --- | --- | --- | --- | --- | --- | --- | --- |
| CN(C)CCCN1c2ccccc2Sc2ccc(Cl)cc21 [CPZ, chlorpromazine] | 49% | 340 pg/mL |  |  |  |  |  |
| CO/C1=C\C(C)=C\[C@@H](C)[C@@H](O)[C@@H](C)C/C(C)=C/C=C/[C@H](OC)[C@@H]([C@@H](C)[C@@H](O)[C@H](C)[C@@]2(O)C[C@@H](O)[C@H](C)[C@@H](C(C)C)O2)OC1=O [bafilomycin A1] | 37% | 430 pg/mL | no significant change | 680 pg/mL |  |  | inhibition at 500 µM [3, 12]: 30% |
| C/C=C/[C@H]1O[C@@](O)([C@@H](C)[C@H](O)[C@H](C)[C@H]2OC(=O)/C(OC)=C/C(C)=C/[C@@H](C)[C@@H](O)[C@@H](CC)[C@@H](O)[C@H](C)C/C(C)=C/C=C/[C@@H]2OC)C[C@@H](O[C@H]2C[C@@H](O)[C@H](OC(N)=O)[C@@H](C)O2)[C@@H]1C [concanamycin A] | 53% | 320 pg/mL | no significant change | 437 pg/mL | 84% | 928 pg/mL | inhibition of B. burgdorferi induction of IL-6 ([3]; 100 ng/ml concanamycin A, 500 µM bafilomycin A1, 1 µM monensin, MOI 10, 6 hours, p = 0.037): 56% |
| CC[C@@]1([C@@H]2O[C@@H]([C@H]3O[C@@](O)(CO)[C@H](C)C[C@@H]3C)C[C@@H]2C)CC[C@H]([C@]2(C)CC[C@]3(C[C@H](O)[C@@H](C)[C@@H]([C@@H](C)[C@@H](OC)[C@H](C)C(=O)O)O3)O2)O1 [monensin] | 38% | 420 pg/mL | decrease in IL-6 secretion | 567 pg/mL | 88% | 567 pg/mL | reduction of IL-6 transcript [6]: 51%; reduction of IL-6 transcript [7]: 32%; inhibition at 1 µM [3, 12]: 40% |
| palmitoyl-3-Cys-Ser-(Lys)4 [Pam3CSK4, synthetic TLR2/1 triacylated lipid ligand, prototypical bacterial lipopeptide (Invivogen)] |  |  |  |  |  |  | induction of IFN-β [8]: did not observe any induction; induction of IFN-α1 (interferon response) [4]: induces an interferon response; mean secretion of IL-6 ([1]; Fig 1A, cells transduced with control shRNA, serum-free, mean of three independent experiments): 350 pg/mL; mean secretion of IL-6 ([1]; Fig 2A, in the presence of 1% FBS, three experiments): 975 pg/mL; mean secretion of IL-6 ([1]; Fig 2A, serum-free, three experiments): 1,048 pg/ml; mean secretion of IL-6 ([1]; Fig 2B, control shRNA cells, 1% FBS): 974 pg/mL; mean secretion of IL-6 ([1]; Fig 2B, control shRNA cells, serum-free): 1,048 pg/ml; mean secretion of IL-6 ([1]; Fig 5, control cells (no inhibitor), serum-free, three experiments): 670 pg/mL; induction of IFN-β [9]: confirm Pam3CSK4-induced IFN-β |
